Measurements taken from patent publication US9249131B2, “Modulators of ATP-binding cassette transporters” (Vertex Pharmaceuticals Incorporated, priority 2003, dated 2016).

Each molecule was assayed against T1, ΔF508-CFTR (Homo sapiens, UniProt P13569, DEL508-508) (assay: Assays for ΔF508-CFTR correction and potentiator properties (membrane potential optical and electrophysiological methods)). Settings: CFTR modulation, % Efficacy.
T1 construct: expressed in transfected cells; host or cells: NIH3T3 mouse fibroblasts stably expressing ΔF508-CFTR for the optical, whole-cell and single-channel assays; Fisher rat epithelial (FRT) cells for Ussing chamber follow-up
T1 sequence (P13569 with tags, fused parts or gaps DEL508-508): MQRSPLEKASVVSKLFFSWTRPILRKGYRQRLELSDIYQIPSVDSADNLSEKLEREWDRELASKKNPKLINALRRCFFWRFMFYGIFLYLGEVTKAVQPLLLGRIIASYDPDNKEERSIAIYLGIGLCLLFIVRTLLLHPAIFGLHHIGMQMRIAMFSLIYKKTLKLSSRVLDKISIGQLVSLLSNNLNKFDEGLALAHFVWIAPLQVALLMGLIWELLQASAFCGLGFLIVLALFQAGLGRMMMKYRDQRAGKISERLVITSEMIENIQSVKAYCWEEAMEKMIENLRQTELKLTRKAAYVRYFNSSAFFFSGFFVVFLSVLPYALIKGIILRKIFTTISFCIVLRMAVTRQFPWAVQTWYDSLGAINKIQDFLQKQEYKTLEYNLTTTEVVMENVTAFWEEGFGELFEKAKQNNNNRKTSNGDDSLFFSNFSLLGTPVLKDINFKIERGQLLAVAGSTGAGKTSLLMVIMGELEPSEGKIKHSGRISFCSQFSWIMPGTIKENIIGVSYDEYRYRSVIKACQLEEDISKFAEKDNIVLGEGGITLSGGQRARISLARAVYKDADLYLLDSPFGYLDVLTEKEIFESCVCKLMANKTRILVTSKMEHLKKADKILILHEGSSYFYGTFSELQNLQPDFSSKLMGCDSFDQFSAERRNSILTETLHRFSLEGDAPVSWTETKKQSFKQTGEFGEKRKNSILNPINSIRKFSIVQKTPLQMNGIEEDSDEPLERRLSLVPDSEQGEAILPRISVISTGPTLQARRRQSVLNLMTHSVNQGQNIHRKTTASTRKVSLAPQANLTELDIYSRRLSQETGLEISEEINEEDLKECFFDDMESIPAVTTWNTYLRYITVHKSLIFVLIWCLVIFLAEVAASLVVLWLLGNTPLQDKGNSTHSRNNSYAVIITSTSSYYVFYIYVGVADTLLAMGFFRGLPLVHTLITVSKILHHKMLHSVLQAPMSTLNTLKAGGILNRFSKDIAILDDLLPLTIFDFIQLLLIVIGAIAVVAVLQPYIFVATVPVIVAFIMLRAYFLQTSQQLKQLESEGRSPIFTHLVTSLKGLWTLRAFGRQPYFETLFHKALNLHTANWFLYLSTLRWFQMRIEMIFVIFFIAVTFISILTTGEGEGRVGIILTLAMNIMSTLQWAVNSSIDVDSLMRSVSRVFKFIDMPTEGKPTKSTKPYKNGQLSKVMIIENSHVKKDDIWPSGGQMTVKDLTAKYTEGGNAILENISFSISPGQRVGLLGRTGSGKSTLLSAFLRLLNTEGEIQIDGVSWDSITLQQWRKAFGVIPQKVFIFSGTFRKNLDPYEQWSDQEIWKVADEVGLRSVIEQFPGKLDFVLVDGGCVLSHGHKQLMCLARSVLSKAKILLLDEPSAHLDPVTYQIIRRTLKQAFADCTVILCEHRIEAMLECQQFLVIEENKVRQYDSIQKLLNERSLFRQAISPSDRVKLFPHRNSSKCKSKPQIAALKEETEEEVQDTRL
Type: cell-based
How it was run: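 NIH3T3 mouse fibroblasts stably expressing ΔF508-CFTR were used, with membrane potential read by DiSBAC2(3)/CC2-DMPE FRET on VIPR. Correctors: 16 h compound exposure at 37 °C, then activation with forskolin plus genistein in Cl⁻-free medium. Potentiators: cells held 24 h at 27 °C, compound added in Cl⁻-free medium, 2-10 μM forskolin 22 s later (final Cl⁻ 28 mM).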

Row | % Activity | SMILES
1 | ++ (“++” means between 25% to 100%) | O=C(Nc1ncc(Cc2ccc(Cl)cc2)o1)C1Cc2ccccc21 (stereo not drawn) [compound 145]
2 | ++ (“++” means between 25% to 100%) | CCC(C(=O)Nc1ncc(Cc2ccc(Cl)cc2)o1)c1ccccc1 (stereo not drawn) [compound 146]
3 | ++ (“++” means between 25% to 100%) | CCC(C)C(C(=O)Nc1ncc(Cc2ccc(Cl)cc2)o1)c1ccccc1 (stereo not drawn) [compound 147]
4 | ++ (“++” means between 25% to 100%) | O=C(Nc1ncc(Cc2ccc(Cl)cc2)o1)C(c1ccccc1)C1CCCC1 (stereo not drawn) [compound 148]
5 | ++ (“++” means between 25% to 100%) | O=C(Cc1ccccc1)Nc1ncc(Cc2ccc(Cl)cc2)o1 [compound 149]
6 | ++ (“++” means between 25% to 100%) | O=C(Nc1ncc(Cc2ccc(Cl)cc2)o1)c1ccccc1 [compound 150]
7 | ++ (“++” means between 25% to 100%) | O=C(Nc1ncc(Cc2cccc(Cl)c2)o1)C(c1ccccc1)C1CCCCC1 (stereo not drawn) [compound 151]
8 | ++ (“++” means between 25% to 100%) | O=C(Nc1ncc(Cc2cccc(Cl)c2)o1)C1Cc2ccccc21 (stereo not drawn) [compound 152]
9 | ++ (“++” means between 25% to 100%) | CC(C(=O)Nc1ncc(Cc2cccc(Cl)c2)o1)c1ccccc1 (stereo not drawn) [compound 153]
10 | ++ (“++” means between 25% to 100%) | CCC(C(=O)Nc1ncc(Cc2cccc(Cl)c2)o1)c1ccccc1 (stereo not drawn) [compound 154]
11 | ++ (“++” means between 25% to 100%) | CCC(C)C(C(=O)Nc1ncc(Cc2cccc(Cl)c2)o1)c1ccccc1 (stereo not drawn) [compound 155]
12 | ++ (“++” means between 25% to 100%) | O=C(Nc1ncc(Cc2cccc(Cl)c2)o1)C(c1ccccc1)C1CCCC1 (stereo not drawn) [compound 156]
13 | ++ (“++” means between 25% to 100%) | O=C(Cc1ccccc1)Nc1ncc(Cc2cccc(Cl)c2)o1 [compound 157]
14 | ++ (“++” means between 25% to 100%) | O=C(Nc1ncc(Cc2cccc(Cl)c2)o1)c1ccccc1 [compound 158]
15 | ++ (“++” means between 25% to 100%) | O=C(Nc1nc(-c2ccccc2Cl)cs1)c1ccccc1 [compound 159]
16 | +++ (“+++” means >100%) | O=C(Nc1nc(-c2cccc(Cl)c2)cs1)c1ccccc1 [compound 160]
17 | ++ (“++” means between 25% to 100%) | N#Cc1ccc(-c2csc(NC(=O)c3ccccc3)n2)cc1 [compound 161]
18 | ++ (“++” means between 25% to 100%) | COc1ccc(-c2csc(NC(=O)c3ccccc3)n2)c(OC)c1 [compound 162]
19 | ++ (“++” means between 25% to 100%) | O=C(Nc1nc(-c2ccc(N3CCCC3)cc2)cs1)c1ccccc1 [compound 163]
20 | ++ (“++” means between 25% to 100%) | O=C(Nc1nc(-c2ccc3c(c2)OCO3)cs1)c1ccccc1 [compound 164]
21 | +++ (“+++” means >100%) | O=C(Nc1nc(-c2ccc(Cl)cc2)c(-c2ccccc2)s1)c1ccccc1 [compound 165]
22 | ++ (“++” means between 25% to 100%) | CC(C(=O)Nc1nc(-c2ccccc2)cs1)c1ccccc1 (stereo not drawn) [compound 166]
23 | ++ (“++” means between 25% to 100%) | CCC(C(=O)Nc1nc(-c2ccccc2)cs1)c1ccccc1 (stereo not drawn) [compound 167]
24 | ++ (“++” means between 25% to 100%) | CC(C)C(C(=O)Nc1nc(-c2ccccc2)cs1)c1ccccc1 (stereo not drawn) [compound 168]
25 | ++ (“++” means between 25% to 100%) | O=C(Nc1nc(-c2ccccc2)cs1)C(c1ccccc1)C1CCCC1 (stereo not drawn) [compound 169]
26 | ++ (“++” means between 25% to 100%) | CCC(C)C(C(=O)Nc1nc(-c2ccccc2)cs1)c1ccccc1 (stereo not drawn) [compound 170]
27 | ++ (“++” means between 25% to 100%) | COC(=O)c1ccccc1C(=O)Nc1nc(-c2ccccc2)cs1 [compound 171]
28 | +++ (“+++” means >100%) | CC(C(=O)Nc1nc(-c2ccccc2)c(-c2ccccc2)s1)c1ccccc1 (stereo not drawn) [compound 172]
29 | ++ (“++” means between 25% to 100%) | CCC(C(=O)Nc1nc(-c2ccccc2)c(-c2ccccc2)s1)c1ccccc1 (stereo not drawn) [compound 173]

Same assay, conditions: CFTR modulation, tested using the above methods

Row | EC50 [µM] | SMILES
30 | 10 to 25 | O=C(Nc1ncc(Cc2ccc(Cl)cc2)o1)C1Cc2ccccc21 (stereo not drawn) [compound 145]
31 | < 10 | CCC(C(=O)Nc1ncc(Cc2ccc(Cl)cc2)o1)c1ccccc1 (stereo not drawn) [compound 146]
32 | < 10 | CCC(C)C(C(=O)Nc1ncc(Cc2ccc(Cl)cc2)o1)c1ccccc1 (stereo not drawn) [compound 147]
33 | < 10 | O=C(Nc1ncc(Cc2ccc(Cl)cc2)o1)C(c1ccccc1)C1CCCC1 (stereo not drawn) [compound 148]
34 | 10 to 25 | O=C(Cc1ccccc1)Nc1ncc(Cc2ccc(Cl)cc2)o1 [compound 149]
35 | 10 to 25 | O=C(Nc1ncc(Cc2ccc(Cl)cc2)o1)c1ccccc1 [compound 150]
36 | < 10 | O=C(Nc1ncc(Cc2cccc(Cl)c2)o1)C(c1ccccc1)C1CCCCC1 (stereo not drawn) [compound 151]
37 | 10 to 25 | O=C(Nc1ncc(Cc2cccc(Cl)c2)o1)C1Cc2ccccc21 (stereo not drawn) [compound 152]
38 | < 10 | CC(C(=O)Nc1ncc(Cc2cccc(Cl)c2)o1)c1ccccc1 (stereo not drawn) [compound 153]
39 | < 10 | CCC(C(=O)Nc1ncc(Cc2cccc(Cl)c2)o1)c1ccccc1 (stereo not drawn) [compound 154]
40 | < 10 | CCC(C)C(C(=O)Nc1ncc(Cc2cccc(Cl)c2)o1)c1ccccc1 (stereo not drawn) [compound 155]
41 | < 10 | O=C(Nc1ncc(Cc2cccc(Cl)c2)o1)C(c1ccccc1)C1CCCC1 (stereo not drawn) [compound 156]
42 | < 10 | O=C(Cc1ccccc1)Nc1ncc(Cc2cccc(Cl)c2)o1 [compound 157]
43 | < 10 | O=C(Nc1nc(-c2ccccc2Cl)cs1)c1ccccc1 [compound 159]
44 | 10 to 25 | O=C(Nc1nc(-c2cccc(Cl)c2)cs1)c1ccccc1 [compound 160]
45 | 25 to 60 | N#Cc1ccc(-c2csc(NC(=O)c3ccccc3)n2)cc1 [compound 161]
46 | 25 to 60 | COc1ccc(-c2csc(NC(=O)c3ccccc3)n2)c(OC)c1 [compound 162]
47 | 10 to 25 | O=C(Nc1nc(-c2ccc(N3CCCC3)cc2)cs1)c1ccccc1 [compound 163]
48 | 10 to 25 | O=C(Nc1nc(-c2ccc3c(c2)OCO3)cs1)c1ccccc1 [compound 164]
49 | < 10 | O=C(Nc1nc(-c2ccc(Cl)cc2)c(-c2ccccc2)s1)c1ccccc1 [compound 165]
50 | 10 to 25 | CC(C(=O)Nc1nc(-c2ccccc2)cs1)c1ccccc1 (stereo not drawn) [compound 166]
51 | < 10 | CCC(C(=O)Nc1nc(-c2ccccc2)cs1)c1ccccc1 (stereo not drawn) [compound 167]
52 | < 10 | CC(C)C(C(=O)Nc1nc(-c2ccccc2)cs1)c1ccccc1 (stereo not drawn) [compound 168]
53 | < 10 | O=C(Nc1nc(-c2ccccc2)cs1)C(c1ccccc1)C1CCCC1 (stereo not drawn) [compound 169]
54 | < 10 | CCC(C)C(C(=O)Nc1nc(-c2ccccc2)cs1)c1ccccc1 (stereo not drawn) [compound 170]
55 | < 10 | COC(=O)c1ccccc1C(=O)Nc1nc(-c2ccccc2)cs1 [compound 171]
56 | < 10 | CC(C(=O)Nc1nc(-c2ccccc2)c(-c2ccccc2)s1)c1ccccc1 (stereo not drawn) [compound 172]
57 | < 10 | CCC(C(=O)Nc1nc(-c2ccccc2)c(-c2ccccc2)s1)c1ccccc1 (stereo not drawn) [compound 173]
